{
  "source": "patent US11814652B2",
  "about": "“Pluripotent stem cell differentiation-promoting agent” (Oriental Yeast Co., Ltd., priority 2018, dated 2023)",
  "key": {"[1]": {"tested_on": "Human adipose tissue-derived mesenchymal stem cells", "assay": "Alizarin Red S staining after bone differentiation-induction of mesenchymal stem cells grown with β-NMN (Example 8)", "format": "cell-based", "conditions": "growth medium supplemented with 0.1 mM or 0.25 mM of β-NMN; 14 days after initiation of bone differentiation-induction; compared with 0 mM", "from_the_text": "The effects of culturing in the presence of β-NMN before bone differentiation-induction of mesenchymal stern cells were examined. Human adipose tissue-derived mesenchymal stem cells (manufactured by Lonza, Cat #PT5006) were used as the mesenchymal stem cells. As a growth medium, a culture medium prepared by appropriately adding β-MNM to “MSCGM Bullet Kit” (manufactured by Lonza, Cat #PT3001) was used. As a bone differentiation-inducing culture medium, a culture medium prepared by adjusting an α-MEM culture medium to have a final concentration of fetal bovine serum of 10% by volume, a final concentration of dexamethasone of 10 nM, a final concentration of β-glycerophosphate of 10 mM, a final concentration of ascorbic acid of 50 μg/mL, and a final concentration of penicillin-streptomycin of 0.1%. The mesenchymal stem cells were seeded in a culture dish at 5×10^3 cells/cm^2 and statically cultured in a growth culture medium not containing β-MNM at 37° C., 5% by volume (CO2) for 1 day. From one day after seeding, the culture medium was replaced every 2 days with a growth culture medium adjusted to have a final concentration of β-MNM of 0, 0.1, or 0.25 mM. Further, when the cell density in the culture dish reached 80 to 90% of the confluent, the cells were passaged. […]"}, "iPS cells 201B7 strain": {"tested_on": "iPS cells 201B7 strain", "assay": "Flow cytometry of Nestin/Pax6 ectodermal markers, differentiation-induction in medium with β-NMN (Example 2)", "format": "cell-based, human", "conditions": "ectodermal differentiation-inducing medium with β-NMN 0.1, 0.25 or 1 mM; 2nd, 4th, 7th day; versus absence of β-NMN", "protocol": "The effect of β-NMN on the ectodermal differentiation-induction of the iPS cells was examined. The 201B7 strain was used as the iPS cells. The iPS cells were seeded in a 12-well plate coated with Matrigel (manufactured by Corning Incorporated) according to the manufacturer's protocol at 8×10^5 cells/well. The cells in the 12-well plate were cultured in a culture medium prepared by adjusting an ectodermal differentiation-inducing culture medium of “STEMdiff Trilineage Differentiation kit” (manufactured by STEMCELL Technologies) to have a final concentration of β-NMN of 0, 0.1, 0.25, or 1 mM, and a final concentration of Rock inhibitor of 10 μM for 1 day. From the 1st day after seeding, the medium was replaced every day with a culture medium obtained by removing the Rock inhibitor from the culture medium at the time of seeding. […] Then, the cells were stained with a fluorescence-labeled anti-Nestin antibody (manufactured by Biolegend, clone 10C2) and a fluorescence-labeled anti-Pax6 antibody (manufactured by Becton, Dickinson and Company, clone O18-1330). After washing the stained cells, a flow cytometer “FACScaliber” (manufactured by Becton, Dickinson and Company) was used to analyze the fluorescence intensity of the anti-Nestin antibody and the fluorescence intensity of the anti-Pax6 antibody in each sample. […]"}},
  "data": [
    {"molecule": "NC(=O)c1ccc[n+]([C@@H]2O[C@H](COP(=O)([O-])O)[C@@H](O)[C@H]2O)c1", "note": "[β-NMN, β-nicotinamide mononucleotide]", "values": [
      {"measurement": "calcium deposition (Alizarin Red S staining)", "setting": "[1]", "value": "strongly observed"},
      {"measurement": "ratio of Nestin-positive Pax6-positive cells", "setting": "iPS cells 201B7 strain", "value": "higher"}
    ]}
  ]
}
